Experimental data reported in US11371055B2, “Herbicide resistance genes” (CORTEVA AGRISCIENCE LLC, priority 2005, dated 2022).

Assays:
[1] = system: AAD-12 (v1) transformed T1 corn plants; experiment: Brace root injury of T1 corn after 2,4-D DMA; format: in vivo, Zea mays; settings: 2240 g ae/ha 2,4-D DMA, V3-V4 stage, 14DAT
Excerpt: T1 AAD-12 (v1) seed were planted into 3-inch pots containing Metro Mix media and at 2 leaf stage were sprayed with 70 g ae/ha imazethapyr to eliminate nulls. Surviving plants were transplanted to 1-gallon pots containing Metro Mix media and placed in the same growth conditions as before. At V3-V4 stage the plants were sprayed in the track sprayer set to 187 L/ha at either 560 or 2240 g ac/ha 2,4-D DMA. Plants were graded at 3 and 14 DAT and compared to 5XH751×Hi II control plants. A grading scale of 0-10 (no injury to extreme auxin injury) was developed to distinguish brace root injury. Brace Root grades were taken on 14DAT to show 2,4-D tolerance. 2,4-D causes brace root malformation, and is a consistent indicator of auxinic herbicide injury in corn. […] Event “pDAB4101(0)001.001” was apparently unstable; however, the other two events were robustly tolerant to 2,4-D and 2,4-D+imazethapyr or 2,-4D+glyphosate (see Table 16).

[2] = system: T1 AAD-12 (v1) rice lines pDAB4101(20)003 and pDAB4101(27)002; experiment: 2,4-D DMA tolerance in T1 rice; format: in vivo, Oryza sativa
Excerpt: The following T1 AAD-12 (v1) single segregating locus lines were planted into 3-inch pots containing Metro Mix media: pDAB4101(20)003 and pDAB4101(27)002. At 2-3 leaf stage were sprayed with 140 g ae/ha imazethapyr. Nulls were eliminated and individuals were sprayed at V3-V4 stage in the track sprayer set to 187 L/ha at 1120, 2240 or 4480 g ac/ha 2,4-D DMA (2×, 4×, and 8× typical commercial use rates, respectively). Plants were graded at 7 and 14 DAT and compared to untransformed commercial rice cultivar. ‘Lamont,’ as negative control plants.

[3] = system: T4 Arabidopsis seed homozygous for AAD-12 (v1) spiked into wildtype (sensitive) seed; experiment: AAD-12 (v1) as selectable marker with 2,4-D as selection agent; format: in vivo, Arabidopsis thaliana; settings: applied 7 and 11 days after planting (DAP); Resistant or Sensitive identified 17 DAP
Experimental: The ability to use AAD-12 (v1) as a selectable marker using 2,4-D as the selection agent was analyzed initially with Arabidopsis transformed as described above. Approximately 50 T4 generation Arabidopsis seed (homozygous for AAD-12 (v1)) were spiked into approximately 5,000 wildtype (sensitive) seed. Several treatments were compared, each tray of plants receiving either one or two application timings of 2,4-D in one of the following treatment schemes: 7 DAP, 11 DAP, or 7 followed by 11 DAP. Since all individuals also contained the PAT gene in the same transformation vector, AAD-12 selected with 2,4-D could be directly compared to PAT selected with glufosinate.
Treatments were applied with a DeVilbiss spray tip as previously described. Plants were identified as Resistant or Sensitive 17 DAP.

[4] = system: PAT-only transformed soybean plants; experiment: 2,4-D leaf paint (leaf flip assay) on PAT-only transformed soybean; format: in vivo, Glycine max; parameters: key: 1 = Flip; 0 = No Flip; settings: event D-2-3 (pDAB4499, PAT, CsVMV)
Excerpt: Plants that are transferred to the greenhouse can be assayed for the presence of an active PAT gene further with a non-destructive manner by painting a section of leaf of the T0 primary transformant, or progeny thereof, with a glufosinate solution [0.05-2% v/v Liberty Herbicide, preferably 0.25-1.0% (v/v),=500-2000 ppm glufosinate, Bayer Crop Science]. Depending on the concentration used, assessment for glufosinate injury can be made 1-7 days after treatment. Plants can also be tested for 2,4-D tolerance in a non-destructive manner by selective application of a 2,4-D solution in water (0.25-1% v/v commercial 2,4-D dimethylamine salt formulation, preferably 0.5% v/v=2280 ppm 2,4-D ae) to the terminal leaflet of the newly expanding trifoliolate one or two, preferably two, nodes below the youngest emerging trifolioate. […] Glyphosate resistance (in plants transformed with constructs that contain EPSPS) or another glyphosate tolerance gene can be assessed in the T1 generation by postemergence applications of glyphosate with a dose range from 280-2240 g ae/ha glyphosate. […] Individual T0 plants were assessed for the presence of the coding region of the gene of interest (AAD-12 (v1) or PAT v6) and copy number. […]
A subset of the initial transformants were assessed in the T0 generation according to the methods above. […]

[5] = system: AAD-2 (v1) transformed T1 Arabidopsis; experiment: 2,4-D dose response of AAD-2 (v1) transformed T1 Arabidopsis; format: in vivo, Arabidopsis thaliana; settings: 200 g ae/ha 2,4-D
Experimental: Freshly harvested T1 seed transformed with a plant optimized AAD-12 (v1) or native AAD-2 (v1) gene were planted and selected for resistance to glufosinate as previously described Plants were then randomly assigned to various rates of 2,4-D (50-3200 g ae/ha). Herbicide applications were applied by track sprayer in a 187 L/ha spray volume. 2,4-D used was the commercial dimethylamine salt formulation (456 g ae/L, NuFarm, St Joseph, Mo.) mixed in 200 mM Tris buffer (pH 9.0) or 200 mM HEPES buffer (pH7.5).

SMILES | Average Brace Root Injury (0-10 Scale) ([1]; event AAD-12 (v1) pDAB4101(0)005.001) | Average Brace Root Injury (0-10 Scale) ([1]; event AAD-12 (v1) pDAB41011(0)003.003) | Average Brace Root Injury (0-10 Scale) ([1]; event AAD-12 (v1)pDAB4101(0)001.001) | Average % injury 14 DAT ([2]; T1 pDAB4101(20)003, 1120 g ae/ha) | Average % injury 14 DAT ([2]; T1 pDAB4101(20)003, 2240 g ae/ha) | Average % injury 14 DAT ([2]; T1 pDAB4101(20)003, 4480 g ae/ha) | Average % injury 14 DAT ([2]; T1 pDAB4101(27)002, 1120 g ae/ha) | Average % injury 14 DAT ([2]; T1 pDAB4101(27)002, 2240 g ae/ha) | Average % injury 14 DAT ([2]; T1 pDAB4101(27)002, 4480 g ae/ha) | optimum treatment for selection of transformed plants [3] | Leaf flip assay (18 HAT) Node N-2 [4] | overall population injury [5]
CNC.O=C(O)COc1ccc(Cl)cc1Cl [2,4-D DMA] | 0 | 1 | 8 | 10% | 15% | 23% | 10% | 30% | 40% |  |  | 
O=C(O)COc1ccc(Cl)cc1Cl [2,4-D, 2,4-dichlorophenoxyacetic acid] |  |  |  |  |  |  |  |  |  | 75 g ae/ha | 1 | about 83%
